According to patent US12240854B2, “TRAF 6 inhibitors” (Helmholtz Zentrum München - Deutsches Forschungszentrum für …, priority 2018, dated 2025):
“Also recorded” adds a separate entry of the source.

Assays:
[1] = tested on: p-IκBα (Ser32/36) in MEF cells; assay: ALPHASurefire p-IκBα / total IκBα in MEF cells; format: cell-based, mouse; conditions: IL-1β
Experimental: In order to detect protein levels of p-IκBα (Ser32/36) as well as total IκBa, 1×10^4 MEF cells were seeded in 96-well plates, treated with compound for 6 hours and stimulated with 1 ng/ml IL-1β for 7 minutes. The p-IκBα and total IκBα protein levels were analyzed using the ALPHASurefire kits (PerkinElmer) following the manufacturer's instruction. The general 2-plate protocol was conducted.

MEF cells = assay: CellTiter-Glo viability assay, MEF cells; format: cell-based, mouse; conditions: 6 or 24 hours incubation
Experimental: For cell viability experiments using the CellTiter-Glo® 2.0 system (Promega), MEF cells (1.2×10^3 cells/well), HepG2 cells (4×10^3 cells/well) and Jurkat T-cells (5×10^3 cells/well) were seeded in 384 well plates. After 18 hours, cells were treated with compounds using the Sciclone G3 automation system. After 6 or 24 hours incubation, the luciferase measurement was performed according to the manufacturer's manual.

RNF4 = target: T1, RNF4 (Homo sapiens, UniProt P78317); assay: In vitro ubiquitination assay, RNF4 ubiquitin ligase kit; format: biochemical
T1 construct: purchased Boston Biochem
T1 sequence (P78317 whole entry): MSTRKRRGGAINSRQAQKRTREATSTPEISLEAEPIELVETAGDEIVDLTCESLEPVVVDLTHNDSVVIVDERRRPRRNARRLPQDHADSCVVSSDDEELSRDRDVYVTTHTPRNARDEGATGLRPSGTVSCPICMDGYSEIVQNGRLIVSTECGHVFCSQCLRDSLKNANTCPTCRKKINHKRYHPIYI
Experimental: (§1) For analysis of cIAP1, MDM2, TRIM63, RNF4, ITCH and E6AP mediated poly-ubiquitination, the respective ubiquitin ligase kit from Boston Biochem (K-102, K-260, K-200B, K-220, K-240 and K-270) was used. Here, reaction buffer, E1, E2 and E3 enzyme (and p53 substrate in case of MDM2) were mixed and pre-incubated with compound or DMSO for 5 minutes at room temperature before adding Mg^2+-ATP and mono-ubiquitin for reaction start. Ubiquitination was visualized by Western Blot analyses.

TRAF6 = target: T2, TRAF6 (Homo sapiens, UniProt Q9Y4K3); assay: In vitro ubiquitination assay (Western blot), TRAF6 with Ubc13/Uev1a; format: biochemical
T2 construct: GST (N, cleaved yes); made in house; host or cells: E. coli BL21 codon plus RIPL (TRAF6); E1, E2 complex and ubiquitin from Boston Biochem
T2 sequence (Q9Y4K3 with tags, fused parts or gaps): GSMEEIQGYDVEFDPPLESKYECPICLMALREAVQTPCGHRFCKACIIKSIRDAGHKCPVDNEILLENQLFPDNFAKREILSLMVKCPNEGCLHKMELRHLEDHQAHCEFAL
Experimental: The ability of TRAF6 to form K63-linked poly-ubiquitin chains in conjunction with Ubc13 was analyzed after compound treatment. Therefore, untagged TRAF6WT and TRAF6D57K, respectively were recombinantly purified. 0.125 μM of TRAF6 protein was pre-incubated with DMSO or compound in a total volume of 100 μL in K63 assay buffer ([…] Tris —HCl pH 7.6; […] MgCL2; […] creatine phosphate; 0.3 U/mL inorganic pyrophosphatase; 0.3 U/mL creatine phosphokinase) for 30 minutes at room temperature. Small aliquots for input samples were taken. A master mix containing 0.01 μM E1-activating enzyme (UBE1) (Boston Biochem), 0.2 μM E2-conjugating enzyme complex (Ubc13/Uev1a) (Boston Biochem), 1 mM ZnCl2, 2 mM ATP und 4 μM mono-ubiquitin (Boston Biochem) was added to the TRAF6 protein and the reaction mixture was incubated for 120 minutes at 37° C. The reaction was stopped by adding 4×SDS loading buffer and boiling at 95° C. for 5 minutes. The input samples were analyzed using the Pierce Silver Stain Kit (Thermo Fisher Scientific). Ubiquitination was detected in Western Blot analysis using an ubiquitin antibody.

[2] = ADME: microsomal stability; format: in vitro ADME
Experimental: All ADME (plasma stability, plasma protein binding, microsomal stability, Log D, Caco-2 assay, CYP450 inhibition and hERG predictor assay) as well as pharmacokinetic studies (Tmax, Cmax, AUC0-240min, Mean Residence Time, Elimination half life, Elimination rate constant, Volume of Distribution and Clearance) of C25-140 (compound 3) were conducted by Bienta Enamine Biology Services of Bienta/Enamine Ltd.

[3] = tested on: IL-2 and TNFα secretion of Jurkat T-cells; assay: ELISA cytokine secretion, Jurkat T-cells; format: cell-based, human
Experimental: For measurement of cytokine secretion, 2×10^5 Jurkat T-cells or primary CD4^+ T-cells or human PBMCs per sample were seeded, treated with compound for 6 hours and stimulated as indicated. 20 hours after stimulation, supernatants were harvested and analyzed with the IL-2, IL-1β and TNFα Ready-Set-Go! ELISA (2nd Generation) kits provided by Affymatrix eBioscience.

MURF/TRIM63 = target: T3, MURF/TRIM63 (Homo sapiens, UniProt Q969Q1); assay: In vitro ubiquitination assay, TRIM63 ubiquitin ligase kit; format: biochemical; conditions: K48 chain formation
T3 construct: purchased Boston Biochem
T3 sequence (Q969Q1 whole entry): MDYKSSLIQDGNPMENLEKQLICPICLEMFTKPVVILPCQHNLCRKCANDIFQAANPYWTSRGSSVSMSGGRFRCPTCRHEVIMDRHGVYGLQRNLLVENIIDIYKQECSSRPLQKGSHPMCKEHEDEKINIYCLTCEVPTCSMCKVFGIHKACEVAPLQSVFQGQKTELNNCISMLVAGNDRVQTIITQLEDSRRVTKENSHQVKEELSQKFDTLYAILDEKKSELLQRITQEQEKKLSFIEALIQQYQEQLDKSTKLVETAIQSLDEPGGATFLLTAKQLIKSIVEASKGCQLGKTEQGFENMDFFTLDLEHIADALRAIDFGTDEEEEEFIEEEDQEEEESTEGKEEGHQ
Experimental: as §1

Jurkat T-cells = assay: Cell cycle assessment (propidium iodide), Jurkat T-cells; format: cell-based, human; conditions: 24 hours and 72 hours
Experimental: (§2) For cell cycle staining, cells were seeded at 2×10^5 cells per sample and treated with compound or DMSO. After the indicated incubation time (24 or 72 hours), cells were fixed in 100% Ethanol and subsequently stained with the Propidium Iodide staining solution (0.1% Triton X-100; 20 μg/ml Propidium Iodide; 200 μg/ml RNAse A in PBS) for 40 min in the dark. The Propidium Iodide fluorescence was collected using the Attune Flow Cytometer (Thermo Fisher Scientific). Analysis was performed using the Single Cell analysis software FlowJo.

U2OS cells = assay: Cell cycle assessment (propidium iodide), U2OS cells; format: cell-based; conditions: 24 hours and 72 hours
Experimental: as §2

80 cancer cell lines = assay: Omniscreen cancer cell line panel, CellTiter-Glo; format: cell-based; conditions: 9 dose levels from 80 μM, 72 hours
Experimental: The effect of C25-140 on cell viability of 80 cancer cell lines using the CellTiter-Glo luminescent cell viability assay was conducted at CrownBioscience Inc. at the testing facility in Beijing. Here, 80 selected cell lines were cultured in media supplemented with 10-15% FBS, in the temperature of 37° C., 5% CO2 and 95% humidity. Culture medium was purchased from GIBCO or Sigma, USA. The cells were treated with C25-140 in 9 dose levels starting at 80 μM with 3.16-fold serial dilutions. Cisplatin served as a reference control and started with a top working concentration of 100 μM. Test samples were incubated for 72 hours and cell viability was measured by the CellTiter-Glo assay.

SMILES: Cc1nn(-c2ccc3nnc(C)n3n2)c(C)c1CCC(=O)N1CCC(Cc2ccccc2)CC1 [Example C25-140, 1-(4-Benzylpiperidin-1-yl)-3-(3,5-dimethyl-1-(3-methyl-[1,2,4]-triazolo-[4,3-b]-pyridazin-6-yl)-1H-pyrazol-4-yl)-propan-1-one]
- activity in cell-based ALPHASurefire (NF-κB activation, p-IκBα) [1]: improved inhibitory activity; also recorded: more active
- metabolic activity and cell viability (MEF cells): did not considerably impact cell viability; also recorded: does not considerably affect metabolic activity and cell viability up to 50 μM; also recorded: at the highest dose of 100 μM toxicity is noticeable
- RNF4 auto-ubiquitination (RNF4): not influenced; also recorded: not affected
- ability of TRAF6 and Ubc13 to form free poly-ubiquitin chains (TRAF6): dose-dependently diminished TRAF6 E3 ligase activity; also recorded: dose-dependently impairs
- microsomal stability [2]: stable
- cytokine secretion of IL-2 and TNFα [3]: reduced; also recorded: dose-dependently decreased
- S5A ubiquitination by MURF/TRIM63 (MURF/TRIM63): not influenced; also recorded: not affected
- cell cycle progression (Jurkat T-cells): no effects on cell cycle phases; also recorded: not impaired
- cell cycle progression (U2OS cells): no effects on cell cycle phases; also recorded: not impaired
- viability of control cell lines HS-5 and MCF 10A (80 cancer cell lines): not affected at all
- viability of cancer cell lines (80 cancer cell lines; 78 cancer cell lines): major effect is on cancer cells of blood origin; also recorded: Various cancer cell lines died; also recorded: Major effects were visible in cancer cells of blood origin
